Source: patent US20250034159A1, “INHIBITORS OF EPIDERMAL GROWTH FACTOR RECEPTOR” (ORIC Pharmaceuticals, Inc., priority 2021, published 2025)
Read-outs that look alike come from different tables or passages of the source.

Assays:
[1] = target: recombinant human EGFR exon 19 deletion/C797S double mutant protein (Homo sapiens (Human), UniProt P00533, C797S/DEL746-750); experiment: Biological Activity Assay C: biochemical assay against EGFR exon 19 deletion/C797S protein (EGFR d19/CS)
Summary of the method: (§1)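 Compounds were tested as 16-point serial dilutions (final DMSO 2.5%) with a Phosphosens peptide sensor/ATP working solution (40 uM/4 mM). The signal was read kinetically over 90 cycles at 120 s intervals. IC50s came from 4-parameter fits of per-well slopes.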

[2] = test system: BaF3_EGFR LR/CS cells; experiment: Biological Activity Assay D: BaF3 cell proliferation assay, EGFR L858R/C797S mutant (BaF3 LR/CS); assay type: cell-based; details: Ba/F3 EGFR, read-out: BaF3 LR/CS IC50
[3] = test system: BaF3_EGFR d19/CS cells; experiment: Biological Activity Assay D: BaF3 cell proliferation assay, EGFR exon 19 deletion/C797S (BaF3 d19/CS); assay type: cell-based; details: Ba/F3 EGFR, read-out: BaF3 d19/CS IC50
[4] = target: recombinant human EGFR L858R/C797S double mutant protein (Homo sapiens (Human), UniProt P00533, C797S/L858R); experiment: Biological Activity Assay B: biochemical assay against EGFR L858R/C797S protein (EGFR LR/CS)
Sequence of recombinant human EGFR L858R/C797S double mutant protein (P00533 25-1210 C797S/L858R): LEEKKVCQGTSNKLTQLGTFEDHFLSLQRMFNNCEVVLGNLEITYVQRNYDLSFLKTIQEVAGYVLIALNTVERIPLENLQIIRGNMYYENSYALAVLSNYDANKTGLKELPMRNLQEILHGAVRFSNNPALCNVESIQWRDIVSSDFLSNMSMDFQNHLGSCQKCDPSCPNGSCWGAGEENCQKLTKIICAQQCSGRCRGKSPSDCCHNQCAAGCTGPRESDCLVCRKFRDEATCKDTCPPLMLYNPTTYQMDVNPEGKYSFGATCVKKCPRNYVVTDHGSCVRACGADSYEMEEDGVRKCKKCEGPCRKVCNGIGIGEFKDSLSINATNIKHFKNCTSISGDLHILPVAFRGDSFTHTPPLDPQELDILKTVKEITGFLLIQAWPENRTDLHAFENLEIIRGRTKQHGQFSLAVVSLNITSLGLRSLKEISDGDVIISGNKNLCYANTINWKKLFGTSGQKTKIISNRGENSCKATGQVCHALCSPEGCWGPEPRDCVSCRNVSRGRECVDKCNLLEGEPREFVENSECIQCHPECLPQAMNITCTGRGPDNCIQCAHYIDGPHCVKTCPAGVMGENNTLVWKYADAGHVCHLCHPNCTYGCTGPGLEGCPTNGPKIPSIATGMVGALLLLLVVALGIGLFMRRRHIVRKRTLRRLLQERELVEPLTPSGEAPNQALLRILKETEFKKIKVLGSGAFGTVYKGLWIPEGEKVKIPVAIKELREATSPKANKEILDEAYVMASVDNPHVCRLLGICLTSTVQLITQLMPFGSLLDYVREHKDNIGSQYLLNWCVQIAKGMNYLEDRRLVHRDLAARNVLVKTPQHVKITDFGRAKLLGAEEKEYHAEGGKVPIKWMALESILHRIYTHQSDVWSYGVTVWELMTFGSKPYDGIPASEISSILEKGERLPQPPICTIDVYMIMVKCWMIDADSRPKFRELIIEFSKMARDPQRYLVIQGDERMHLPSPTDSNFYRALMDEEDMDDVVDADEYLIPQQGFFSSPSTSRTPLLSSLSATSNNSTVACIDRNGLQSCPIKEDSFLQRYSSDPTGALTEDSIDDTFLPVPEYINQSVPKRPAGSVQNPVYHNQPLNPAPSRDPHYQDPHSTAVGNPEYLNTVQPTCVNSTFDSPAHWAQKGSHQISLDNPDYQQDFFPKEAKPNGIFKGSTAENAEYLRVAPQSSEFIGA
Summary of the method: as §1

[5] = test system: Ba/F3_EGFR WT cells; experiment: Biological Activity Assay D: BaF3 cell proliferation assay, EGFR wild-type (BaF3 WT); assay type: cell-based; details: Ba/F3 EGFR, read-out: BaF3 WT IC50
[6] = BaF3_EGFR LR/CS cells, ~72 hours, CellTiter-Glo
[7] = BaF3_EGFR d19/CS cells, ~72 hours, CellTiter-Glo
[8] = Ba/F3_EGFR WT cells, ~72 hours, CellTiter-Glo

Sequence of recombinant human EGFR exon 19 deletion/C797S double mutant protein (P00533 other isoform, or with tags, fused parts or gaps C797S/del 1-668/del 746-750 limits assumed): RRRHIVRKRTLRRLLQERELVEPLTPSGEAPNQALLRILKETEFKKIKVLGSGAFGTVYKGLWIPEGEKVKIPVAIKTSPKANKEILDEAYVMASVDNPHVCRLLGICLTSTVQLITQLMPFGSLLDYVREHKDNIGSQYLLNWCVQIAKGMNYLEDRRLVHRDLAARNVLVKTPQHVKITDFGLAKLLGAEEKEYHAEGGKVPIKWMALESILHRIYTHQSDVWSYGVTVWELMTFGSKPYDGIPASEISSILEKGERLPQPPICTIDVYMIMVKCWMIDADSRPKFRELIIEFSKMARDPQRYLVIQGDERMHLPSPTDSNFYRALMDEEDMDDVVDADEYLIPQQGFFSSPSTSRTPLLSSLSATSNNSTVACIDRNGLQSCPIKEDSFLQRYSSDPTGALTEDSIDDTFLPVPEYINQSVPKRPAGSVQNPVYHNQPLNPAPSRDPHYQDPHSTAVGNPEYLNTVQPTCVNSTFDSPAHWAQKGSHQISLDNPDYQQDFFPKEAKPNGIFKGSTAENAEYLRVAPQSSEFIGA

Row | Compound | IC50 [1] | IC50 [2, 6] | IC50 [3, 7] | IC50 [4] | IC50 [5, 8] | IC50 ([2]; 72 h) | IC50 ([3]; 72 h) | IC50 ([5]; 72 h)
1 | CC(C)(C(N)=O)n1cc(-c2ncnc3oc(-c4ccccc4)cc23)c(-c2ccc(F)cc2)n1 [Example 77, 2-[3-(4-Fluorophenyl)-4-(6-phenylfuro[2,3-d]pyrimidin-4-yl)-1H-pyrazol-1-yl]-2-methylpropanamide] | 1.61 nM | 139 nM | 72.2 nM | 1.36 nM | 5180 nM |  |  | 
2 | CS(=O)(=O)Cn1cc(-c2ncnc3oc(-c4ccccc4)cc23)c(-c2ccc(F)cc2)n1 [Example 79, 4-{3-(4-fluorophenyl)-1-[(methanesulfonyl)methyl]-1H-pyrazol-4-yl}-6-phenylfuro[2,3-d]pyrimidine] | 1.99 nM | 116 nM | 111 nM | 2.64 nM | 10200 nM |  |  | 
3 | Fc1ccc(-c2nn(C3COC3)nc2-c2ncnc3oc(-c4ccccc4)cc23)cc1 [Example 81, 4-[5-(4-fluorophenyl)-2-(oxetan-3-yl)-2H-1,2,3-triazol-4-yl]-6-phenylfuro[2,3-d]pyrimidine] | 1.12 nM | 241 nM | 330 nM | 2.58 nM | 13500 nM |  |  | 
4 | CC(C)(O)CCn1nc(-c2ccc(F)cc2)c(-c2ncnc3oc(-c4ccccc4)cc23)n1 [Example 82, 4-[4-(4-fluorophenyl)-5-(6-phenylfuro[2,3-d]pyrimidin-4-yl)-2H-1,2,3-triazol-2-yl]-2-methylbutan-2-ol] | 2.86 nM | 392 nM | 597 nM | 4.33 nM | > 20000 nM |  |  | 
5 | O=S1(=O)CCCC(n2cc(-c3ncnc4oc(-c5ccccc5)cc34)c(-c3ccc(F)cc3)n2)C1 (stereo not drawn) [Example 84, 3-[3-(4-fluorophenyl)-4-(6-phenylfuro[2,3-d]pyrimidin-4-yl)-1H-pyrazol-1-yl]-1λ6-thiane-1,1-dione] | 10.8 nM | 566 nM | 779 nM | 6.21 nM | > 20000 nM |  |  | 
6 | CC(=O)N1CC(n2cc(-c3ncnc4oc(-c5ccccc5)cc34)c(-c3ccc(F)cc3)n2)C1 [Example 86, 1-{3-[3-(4-fluorophenyl)-4-(6-phenylfuro[2,3-d]pyrimidin-4-yl)-1H-pyrazol-1-yl]azetidin-1-yl}ethan-1-one] | 6.67 nM | 390 nM | 429 nM | 6.25 nM | 7380 nM |  |  | 
7 | CS(=O)(=O)CCn1nc(-c2ccc(F)cc2)c(-c2ncnc3oc(-c4ccccc4)cc23)n1 [Example 87, 4-{5-(4-fluorophenyl)-2-[2-(methanesulfonyl)ethyl]-2H-1,2,3-triazol-4-yl}-6-phenylfuro[2,3-d]pyrimidine] | 1.34 nM | 140 nM | 196 nM | 1.56 nM | 2810 nM |  |  | 
8 | CC(=O)N1CCC(n2cc(-c3ncnc4oc(-c5ccccc5)cc34)c(-c3ccc(F)cc3)n2)C1 (stereo not drawn) [Example 92, 1-{3-[3-(4-fluorophenyl)-4-(6-phenylfuro[2,3-d]pyrimidin-4-yl)-1H-pyrazol-1-yl]pyrrolidin-1-yl}ethan-1-one] | 0.84 nM | 231 nM | 255 nM | 0.95 nM | 6220 nM |  |  | 
9 | OCCn1cc(-c2ncnc3oc(-c4ccccc4)cc23)c(-c2ccc(F)cc2)n1 [Example 94, 2-[3-(4-Fluorophenyl)-4-(6-phenylfuro[2,3-d]pyrimidin-4-yl)-1H-pyrazol-1-yl]ethan-1-ol] | 0.11 nM |  |  | 0.17 nM |  | 22.4 nM | 27.4 nM | 1120 nM
10 | O=S1(=O)CC(Cn2cc(-c3ncnc4oc(-c5ccccc5)cc34)c(-c3ccc(F)cc3)n2)C1 [Example 98, 3-{[3-(4-fluorophenyl)-4-(6-phenylfuro[2,3-d]pyrimidin-4-yl)-1H-pyrazol-1-yl]methyl}-1λ6-thietane-1,1-dione] | 1.27 nM | 161 nM | 212 nM | 0.82 nM | 1860 nM |  |  | 
11 | O=S1(=O)CCC(Cn2cc(-c3ncnc4oc(-c5ccccc5)cc34)c(-c3ccc(F)cc3)n2)CC1 [Example 105, 4-{[3-(4-fluorophenyl)-4-(6-phenylfuro[2,3-d]pyrimidin-4-yl)-1H-pyrazol-1-yl]methyl}-1λ6-thiane-1,1-dione] | 1.69 nM | 136 nM | 152 nM | 0.75 nM | 1700 nM |  |  | 
12 | Fc1ccc(-c2nn(C(F)F)cc2-c2ncnc3oc(-c4ccccc4)cc23)cc1 [Example 107, 4-[1-(difluoromethyl)-3-(4-fluorophenyl)-1H-pyrazol-4-yl]-6-phenylfuro[2,3-d]pyrimidine] | 6.94 nM | 610 nM | 314 nM | 9.83 nM | 3370 nM |  |  | 

The remaining molecules from weak to strong by IC50 [1], led by results:

Row | IC50 [1] | IC50 [2, 6] | IC50 [3, 7] | IC50 [4] | IC50 [5, 8] | Compound | IC50 ([2]; 72 h) | IC50 ([3]; 72 h) | IC50 ([5]; 72 h)
13 | 0.73 nM | 184 nM | 450 nM | 0.91 nM | 4290 nM | COC(C)(C)Cn1cc(-c2ncnc3oc(-c4ccccc4)cc23)c(-c2ccc(F)cc2)n1 [Example 93, 4-[3-(4-fluorophenyl)-1-(2-methoxy-2-methylpropyl)-1H-pyrazol-4-yl]-6-phenylfuro[2,3-d]pyrimidine] |  |  | 
14 | 0.7 nM | 45.5 nM | 31 nM | 0.94 nM | 2020 nM | Fc1ccc(-c2nn(C3CCOCC3)cc2-c2ncnc3oc(-c4ccccc4)cc23)cc1 [Example 76, 4-[3-(4-Fluorophenyl)-1-(oxan-4-yl)-1H-pyrazol-4-yl]-6-phenylfuro[2,3-d]pyrimidine] |  |  | 
15 | 0.64 nM | 301 nM | 238 nM | 1.22 nM | 3740 nM | CC(C)(O)Cn1nc(-c2ccc(F)cc2)c(-c2ncnc3oc(-c4ccccc4)cc23)n1 [Example 88, 1-[4-(4-fluorophenyl)-5-(6-phenylfuro[2,3-d]pyrimidin-4-yl)-2H-1,2,3-triazol-2-yl]-2-methylpropan-2-ol] |  |  | 
16 | 0.46 nM | 174 nM | 98 nM | 1.67 nM | 10600 nM | O=S1(=O)CC(n2nc(-c3ccc(F)cc3)c(-c3ncnc4oc(-c5ccccc5)cc34)n2)C1 [Example 104, 3-[4-(4-Fluorophenyl)-5-(6-phenylfuro[2,3-d]pyrimidin-4-yl)-2H-1,2,3-triazol-2-yl]-1λ6-thietane-1,1-dione] |  |  | 
17 | 0.45 nM | 130 nM | 105 nM | 1.59 nM | 1520 nM | CC(=O)N1CC=C(c2cc3c(-c4cn(C5CS(=O)(=O)C5)nc4-c4ccc(F)cc4)ncnc3o2)CC1 [Example 108, 3-{4-[6-(1-Acetyl-1,2,3,6-tetrahydropyridin-4-yl)furo[2,3-d]pyrimidin-4-yl]-3-(4-fluorophenyl)-1H-pyrazol-1-yl}-1λ6-thietane-1,1-dione] |  |  | 
18 | 0.41 nM | 53.7 nM | 114 nM | 0.45 nM | 1140 nM | NS(=O)(=O)CCn1cc(-c2ncnc3oc(-c4ccccc4)cc23)c(-c2ccc(F)cc2)n1 [Example 111, 2-[3-(4-Fluorophenyl)-4-(6-phenylfuro[2,3-d]pyrimidin-4-yl)-1H-pyrazol-1-yl]ethane-1-sulfonamide] |  |  | 
19 | 0.38 nM | 55.7 nM | 64.7 nM | 0.45 nM | 1020 nM | NC(=O)Cn1cc(-c2ncnc3oc(-c4ccccc4)cc23)c(-c2ccc(F)cc2)n1 [Example 106, 2-[3-(4-Fluorophenyl)-4-(6-phenylfuro[2,3-d]pyrimidin-4-yl)-1H-pyrazol-1-yl]acetamide] |  |  | 
20 | 0.37 nM | 23.2 nM | 18.4 nM | 0.48 nM | 2730 nM | OCC(F)(F)Cn1cc(-c2ncnc3oc(-c4ccccc4)cc23)c(-c2ccc(F)cc2)n1 [Example 78, 2,2-Difluoro-3-[3-(4-fluorophenyl)-4-(6-phenylfuro[2,3-d]pyrimidin-4-yl)-1H-pyrazol-1-yl]propan-1-ol] |  |  | 
21 | 0.33 nM | 68.7 nM | 83.1 nM | 0.69 nM | 1380 nM | CC(C)(O)Cn1cc(-c2ncnc3oc(-c4ccccc4)cc23)c(-c2ccccc2)n1 [Example 110, 2-Methyl-1-[3-phenyl-4-(6-phenylfuro[2,3-d]pyrimidin-4-yl)-1H-pyrazol-1-yl]propan-2-ol] |  |  | 
22 | 0.32 nM | 116 nM | 95.2 nM | 0.75 nM | 2090 nM | CC(C)(O)Cn1cc(-c2ncnc3oc(-c4ccccc4)cc23)c(-c2cccc(F)c2)n1 [Example 95, 1-[3-(3-Fluorophenyl)-4-(6-phenylfuro[2,3-d]pyrimidin-4-yl)-1H-pyrazol-1-yl]-2-methylpropan-2-ol] |  |  | 
23 | 0.18 nM | 15.7 nM | 23.6 nM | 0.4 nM | 667 nM | CC(C)(O)Cn1cc(-c2ncnc3oc(-c4ccccc4)cc23)c(-c2ccccc2F)n1 [Example 109, 1-[3-(2-Fluorophenyl)-4-(6-phenylfuro[2,3-d]pyrimidin-4-yl)-1H-pyrazol-1-yl]-2-methylpropan-2-ol] |  |  | 
24 | 0.13 nM | 8.35 nM | 17.5 nM | 0.16 nM | 229 nM | CS(=O)(=O)NCCn1cc(-c2ncnc3oc(-c4ccccc4)cc23)c(-c2ccc(F)cc2)n1 [Example 103, N-{2-[3-(4-Fluorophenyl)-4-(6-phenylfuro[2,3-d]pyrimidin-4-yl)-1H-pyrazol-1-yl]ethyl}methanesulfonamide] |  |  | 
